*1 amine or outer side, *2 acyl side, *3 side chain or, on linkers, in order; H or OH if unused. Where a SMILES comes first, the peptide text is derived from it. [ ]: non-standard residue; d: D form. The star is where a group is joined. Phe(2-Me) = Cc1ccccc1C[C@H](N)C(=O)O; NleCONH2 = CCCC[C@H](N*)C(=O)C(N)=O; Suc = O=C(CCC(=O)[*:2])[*:1]; Tle = CC(C)(C)[C@H](N)C(=O)O
Assay: Compound was tested for inhibition of Serine protease chymotrypsin

IC50: 300 nM
SMILES: CCCC[C@H](NC(=O)[C@H](CC(C)C)NC(=O)[C@@H](NC(=O)[C@H](Cc1ccccc1C)NC(=O)[C@H](CCC(=O)O)NC(=O)[C@H](CC(=O)O)NC(=O)CCC(=O)O)C(C)(C)C)C(=O)C(N)=O [(S)-4-((S)-1-{(S)-1-[(S)-1-((R)-1-Aminooxalyl-pentylcarbamoyl)-3-methyl-butylcarbamoyl]-2,2-dimethyl-propylcarbamoyl}-2-o-tolyl-ethylcarbamoyl)-4-[(S)-3-carboxy-2-(3-carboxy-propionylamino)-propionylamino]-butyric acid] (Suc-DE[Phe(2-Me)][Tle]L-NleCONH2)
